The text below walks through data of patent publication US11078197B2, “5-membered and bicyclic heterocyclic amides as inhibitors of rock” (BRISTOL-MYERS SQUIBB COMPANY, priority 2017, dated 2021).

ROCK2, sequence (O75116 whole entry, species assumed): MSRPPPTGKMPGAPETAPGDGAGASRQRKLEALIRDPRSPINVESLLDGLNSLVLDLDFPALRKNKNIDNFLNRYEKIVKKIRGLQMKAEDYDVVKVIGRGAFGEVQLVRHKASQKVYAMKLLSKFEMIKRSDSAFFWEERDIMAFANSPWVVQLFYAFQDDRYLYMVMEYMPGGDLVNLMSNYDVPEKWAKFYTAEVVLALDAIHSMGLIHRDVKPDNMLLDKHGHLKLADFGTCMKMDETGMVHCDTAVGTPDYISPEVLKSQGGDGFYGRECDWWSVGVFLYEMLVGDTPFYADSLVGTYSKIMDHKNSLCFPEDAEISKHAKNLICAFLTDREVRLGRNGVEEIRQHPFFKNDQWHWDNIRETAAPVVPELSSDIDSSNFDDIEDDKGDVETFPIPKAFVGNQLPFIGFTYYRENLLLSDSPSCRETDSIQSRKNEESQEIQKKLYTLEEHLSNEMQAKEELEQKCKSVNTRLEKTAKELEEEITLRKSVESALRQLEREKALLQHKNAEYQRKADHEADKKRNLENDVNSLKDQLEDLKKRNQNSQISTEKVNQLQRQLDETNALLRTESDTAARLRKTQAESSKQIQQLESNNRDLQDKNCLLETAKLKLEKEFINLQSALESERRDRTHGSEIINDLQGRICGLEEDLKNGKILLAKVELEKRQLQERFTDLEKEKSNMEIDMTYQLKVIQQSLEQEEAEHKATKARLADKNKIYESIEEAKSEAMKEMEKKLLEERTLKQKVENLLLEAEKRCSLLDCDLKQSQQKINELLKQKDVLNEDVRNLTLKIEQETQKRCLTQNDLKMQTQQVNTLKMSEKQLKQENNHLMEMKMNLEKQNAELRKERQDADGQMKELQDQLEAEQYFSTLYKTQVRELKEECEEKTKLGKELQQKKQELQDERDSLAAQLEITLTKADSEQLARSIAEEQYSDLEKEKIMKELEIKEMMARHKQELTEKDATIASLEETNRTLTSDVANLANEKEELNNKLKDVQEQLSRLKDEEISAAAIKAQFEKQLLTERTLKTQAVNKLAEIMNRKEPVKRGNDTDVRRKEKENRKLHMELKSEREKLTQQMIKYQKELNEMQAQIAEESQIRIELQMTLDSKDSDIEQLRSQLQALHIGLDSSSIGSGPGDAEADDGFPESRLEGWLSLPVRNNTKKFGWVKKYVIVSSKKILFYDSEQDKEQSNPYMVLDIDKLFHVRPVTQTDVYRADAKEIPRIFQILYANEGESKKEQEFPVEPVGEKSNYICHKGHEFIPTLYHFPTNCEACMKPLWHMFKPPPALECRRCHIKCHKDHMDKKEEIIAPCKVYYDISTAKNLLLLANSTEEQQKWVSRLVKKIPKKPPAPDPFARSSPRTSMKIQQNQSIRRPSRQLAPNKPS

The assay addresses ROCK2 (Homo sapiens (Human), UniProt O75116). Kind of assay: ROCK2 assay (peptide phosphorylation, LABCHIP 3000 Reader). In kind it is biochemical. Conditions: 5 μM ATP, 1.5 μM peptide substrate, dose-response. The protocol: After incubation, the reaction was terminated by the addition of EDTA and the phosphorylated and non-phosphorylated peptides separated using a LABCHIP®3000 Reader (Caliper Life Sciences). […] Compounds were tested in dose-response format, and the inhibition of kinase activity was calculated at each concentration of compound. […] Representative Examples were tested in the ROCK2 assay described above and found having ROCK2 inhibitory activity.
Broadly, the IC50 is the concentration that gives 50% inhibition. A low value points to inhibition by little substance. `NC(=O)c1cn(C2CC2)nc1O[C@H]1C[C@]2(C1)C[C@H](N1C(=O)NC(Cc3ccccc3)C1=O)C2` (stereo partly drawn) [Example 104, 1-cyclopropyl-3-{[(aR)-6-(4-benzyl-2,5-dioxoimidazolidin-1-yl)spiro[3.3]heptan-2-yl]oxy}-1H-pyrazole-4-carboxamide] displayed an IC50 of 2040 nM.
The molecule `NC(=O)c1c(O[C@H]2C[C@@]3(C[C@H](NC(=O)c4cnn5cc(OCC(F)F)ccc45)C3)C2)nn2ccccc12` (some centres unmarked) [Example 122, 2-{[(4s)-6-[6-(2,2-difluoroethoxy)pyrazolo[1,5-a]pyridine-3-amido]spiro[3.3]heptan-2-yl]oxy}pyrazolo[1,5-a]pyridine-3-carboxamide] yielded a half-maximal inhibitory concentration (IC50) of 117 nM.
Molecule `Cn1ncc2cc(C(N)=O)c(O[C@H]3C[C@@]4(C[C@H](NC(=O)c5cccc(C#N)c5)C4)C3)nc21` (stereo partly drawn) [Example 102, 1-methyl-6-{[(aR)-6-(3-cyanobenzamido)spiro[3.3]heptan-2-yl]oxy}-1H-pyrazolo[3,4-b]pyridine-5-carboxamide] gave an IC50 of 8 nM.
For the molecule `Cc1c(C(=O)N[C@H]2C[C@]3(C2)C[C@H](Oc2nc(C4CC4)sc2C(N)=O)C3)cnn1-c1ccc(Cl)cc1` (stereo partly drawn) [Example 45, 2-cyclopropyl-4-{[(aR)-6-[1-(4-chlorophenyl)-5-methyl-1H-pyrazole-4-amido]spiro[3.3]heptan-2-yl]oxy}-1,3-thiazole-5-carboxamide], the 50% inhibitory concentration (IC50) is 25 nM.
For `CC(C)(O)COc1ccc2c(C(=O)N[C@H]3C[C@]4(C3)C[C@H](Oc3[nH]ncc3C(N)=O)C4)cnn2c1C1CC1` (stereo partly drawn) [Example 26, 5-({(aR)-6-[7-cyclopropyl-6-(2-hydroxy-2-methylpropoxy)pyrazolo [1,5-a]pyridine-3-amido]spiro[3.3]heptan-2-yl}oxy)-1H-pyrazole-4-carboxamide] the value was 25.4 nM; for `COCCn1ncc(C(N)=O)c1O[C@H]1C[C@@]2(C[C@H](NC(=O)c3cnn4c(C5CC5)c(OCC(C)(C)O)ccc34)C2)C1` (stereo partly drawn) [Example 24, 5-({(aR)-6-[7-cyclopropyl-6-(2-hydroxy-2-methylpropoxy)pyrazolo [1,5-a]pyridine-3-amido]spiro[3.3]heptan-2-yl}oxy)-1-(2-methoxyethyl)-1H-pyrazole-4-carboxamide], 1480 nM.
For `Cc1c(C(=O)N[C@H]2C[C@]3(C2)C[C@H](Oc2nn4ccccc4c2C(N)=O)C3)cnn1-c1ccc(C(F)(F)F)cn1` (some centres unmarked) [Example 120, 5-methyl-N-[(4s)-6-({3-carbamoylpyrazolo[1,5-a]pyridin-2-yl}oxy)spiro[3.3]heptan-2-yl]-1-[5-(trifluoromethyl)pyridin-2-yl]-1H-pyrazole-4-carboxamide] the value was 805 nM.
`Cc1ccc2c(C(N)=O)c(O[C@H]3C[C@@]4(C[C@H](NC(=O)c5nn(C(F)F)c6cc(OCC(C)(C)O)ccc56)C4)C3)nn2c1` (some centres unmarked) [Example 126, 1-(difluoromethyl)-6-(2-hydroxy-2-methylpropoxy)-N-[(4s)-6-({3-carbamoyl-6-methylpyrazolo[1,5-a]pyridin-2-yl}oxy)spiro[3.3]heptan-2-yl]-1H-indazole-3-carboxamide]: inhibition was half-maximal at 46.4 nM (IC50).
For `N#Cc1ccc(C(=O)N[C@H]2C[C@]3(C2)C[C@H](Oc2nc4c(cc2C(N)=O)COCC4)C3)cc1F` (stereo partly drawn) [Example 93, 2-{[(aR)-6-(4-cyano-3-fluorobenzamido)spiro[3.3]heptan-2-yl]oxy}-5H,7H,8H-pyrano[4,3-b]pyridine-3-carboxamide] the value was 1460 nM.
The result for “2-cyclopropyl-4- {[(aR)-6-{4-[(1R)- 1-hydroxyethyl]-2,5- dioxoimidazolidin-1- yl}spiro[3.3]heptan- 2-yl]oxy}-1,3- thiazole-5- carboxamide [Example 109]” reads 330 nM; that for `NC(=O)c1cc2sccc2nc1OC1CC2(CC(NC(=O)C3CC(=O)N(Cc4ccc(Cl)cc4)C3)C2)C1` (single isomer, unassigned) [Example 78, N-[6-({6-carbamoylthieno[3,2-b]pyridin-5-yl}oxy)spiro[3.3]heptan-2-yl]-1-[(4-chlorophenyl)methyl]-5-oxopyrrolidine-3-carboxamide], 3100 nM; that for `NC(=O)c1sc(C2CC2)nc1O[C@H]1CC2(C[C@H](NC(=O)c3cnn4cc(OCC(F)F)ccc34)C2)C1` (stereo partly drawn) [Example 11, 2-cyclopropyl-4-(((aR)-6-(6-(2,2-difluoroethoxy)pyrazolo[1,5-a]pyridine-3-carboxamido)spiro[3.3]heptan-2-yl)oxy)thiazole-5-carboxamide], 23.3 nM.
For `Cn1ncc2cc(C(N)=O)c(O[C@H]3C[C@@]4(C[C@H](NC(=O)c5cc(-c6ccc(S(C)(=O)=O)cc6)n(C(F)F)n5)C4)C3)nc21` (some centres unmarked) [Example 154, 1-(difluoromethyl)-5-(4-methanesulfonylphenyl)-N-[(4s)-6-({5-carbamoyl-1-methyl-1H-pyrazolo[3,4-b]pyridin-6-yl}oxy)spiro[3.3]heptan-2-yl]-1H-pyrazole-3-carboxamide], the IC50 was 2.3 nM. This IC50 is about 10-fold lower than that of the molecule before.
The result for `NC(=O)c1sc(C2CC2)nc1O[C@H]1C[C@]2(C1)C[C@H](N1C(=O)NC(Cc3cccnc3)C1=O)C2` (stereo partly drawn) [Example 107, 2-cyclopropyl-4-{[(aR)-6-{2,5-dioxo-4-[(pyridin-3-yl)methyl]imidazolidin-1-yl}spiro[3.3]heptan-2-yl]oxy}-1,3-thiazole-5-carboxamide] reads 1830 nM; that for `NC(=O)c1c(O[C@H]2C[C@@]3(C[C@H](NC(=O)c4cnn5cc(OCC(O)(C(F)(F)F)C(F)(F)F)ccc45)C3)C2)nn2ccccc12` (some centres unmarked) [Example 123, 2-{[(4s)-6-{6-[3,3,3-trifluoro-2-hydroxy-2-(trifluoromethyl)propoxy]pyrazolo[1,5-a]pyridine-3-amido}spiro[3.3]heptan-2-yl]oxy}pyrazolo[1,5-a]pyridine-3-carboxamide], 241 nM.
The result for `Cn1ncc2cc(C(N)=O)c(O[C@H]3C[C@@]4(C[C@H](NC(=O)c5cc(-c6ccc(C#N)cc6)n(C(F)F)n5)C4)C3)nc21` (some centres unmarked) [Example 155, 5-(4-cyanophenyl)-1-(difluoromethyl)-N-[(4s)-6-({5-carbamoyl-1-methyl-1H-pyrazolo[3,4-b]pyridin-6-yl}oxy)spiro[3.3]heptan-2-yl]-1H-pyrazole-3-carboxamide] reads 2.7 nM; that for `[H][C@]1(Oc2nc(C)sc2C(N)=O)C[C@]2(C[C@@H](NC(=O)c3cnn(-c4ccc(Cl)cc4)c3C)C2)C1` (stereo partly drawn) [Example 1, 4-(((aR)-6-(1-(4-Chlorophenyl)-5-methyl-1H-pyrazole-4-carboxamido)spiro[3.3]heptan-2-yl)oxy)-2-methylthiazole-5-carboxamide], 42.7 nM.
The result for `Cc1c(C(=O)N[C@H]2C[C@]3(C2)C[C@H](Oc2nn4cc(F)ccc4c2C(N)=O)C3)cnn1-c1ccc(C#N)cc1` (some centres unmarked) [Example 129, 1-(4-cyanophenyl)-5-methyl-N-[(4s)-6-({3-carbamoyl-6-fluoropyrazolo[1,5-a]pyridin-2-yl}oxy)spiro[3.3]heptan-2-yl]-1H-pyrazole-4-carboxamide] reads 702 nM; that for `NC(=O)c1cc2sccc2nc1OC1CC2(CC(NC(=O)C3CC(=O)N(Cc4ccc(Cl)cc4)C3)C2)C1` (single isomer, unassigned) [Example 80, N-[6-({6-carbamoylthieno[3,2-b]pyridin-5-yl}oxy)spiro[3.3]heptan-2-yl]-1-[(4-chlorophenyl)methyl]-5-oxopyrrolidine-3-carboxamide], 2340 nM; that for `N#Cc1cc(C(=O)N[C@H]2C[C@]3(C2)C[C@H](Oc2nc4c(cc2C(N)=O)COCC4)C3)ccc1F` (stereo partly drawn) [Example 87, 2-{[(aR)-6-(3-cyano-4-fluorobenzamido)spiro[3.3]heptan-2-yl]oxy}-5H,7H,8H-pyrano[4,3-b]pyridine-3-carboxamide], 156 nM.
Molecule `CC(C)(O)COc1ccc2c(C(=O)N[C@H]3C[C@]4(C3)C[C@H](Oc3nc5ccsc5cc3C(N)=O)C4)cnn2c1` (stereo partly drawn) [Example 84, 6-(2-hydroxy-2-methylpropoxy)-N-[(aR)-6-({6-carbamoylthieno[3,2-b]pyridin-5-yl}oxy)spiro[3.3]heptan-2-yl]pyrazolo[1,5-a]pyridine-3-carboxamide] showed a concentration for half-maximal inhibition (IC50) of 2.2 nM.
For `N#CCc1cccc(C(=O)N[C@H]2C[C@]3(C2)C[C@H](Oc2nc4c(cc2C(N)=O)COCC4)C3)c1` (stereo partly drawn) [Example 88, 2-{[(aR)-6-[3-(cyanomethyl)benzamido]spiro[3.3]heptan-2-yl]oxy}-5H,7H,8H-pyrano[4,3-b]pyridine-3-carboxamide] the value was 35 nM; for `Cc1nc(O[C@H]2C[C@@]3(C[C@H](NC(=O)c4cnn5cc(N6CC(CO)(CCl)C6)ccc45)C3)C2)c(C(N)=O)s1` (stereo partly drawn) [Example 34, 4-[((aR)-6-{6-[3-(chloromethyl)-3-(hydroxymethyl)azetidin-1-yl]pyrazolo[1,5-a]pyridine-3-amido}spiro[3.3]heptan-2-yl)oxy]-2-methyl-1,3-thiazole-5-carboxamide], 17.2 nM.
For `CC(C)(O)COc1ccc2c(C(=O)NC3CC4(C3)CC(Oc3nn(CC5CC5)cc3C(N)=O)C4)cnn2c1C1CC1` (centres unmarked) [Example 5] the value was 52.6 nM; for `Cc1c(C(=O)N[C@H]2C[C@]3(C2)C[C@H](Oc2nn(C(F)F)cc2C(N)=O)C3)cnn1-c1ccc(C#N)cc1` (stereo partly drawn) [Example 54, 1-(4-cyanophenyl)-5-methyl-N-[(aR)-6-{[4-carbamoyl-1-(difluoromethyl)-1H-pyrazol-3-yl]oxy}spiro[3.3]heptan-2-yl]-1H-pyrazole-4-carboxamide], 253 nM; for `Cc1c(C(=O)N[C@H]2C[C@]3(C2)C[C@H](Oc2nc4c(cnn4C)cc2C(N)=O)C3)cnn1-c1ccc(-c2cnn(C)c2)cc1` (some centres unmarked) [Example 153, 5-methyl-1-[4-(1-methyl-1H-pyrazol-4-yl)phenyl]-N-[(4s)-6-({5-carbamoyl-1-methyl-1H-pyrazolo[3,4-b]pyridin-6-yl}oxy)spiro[3.3]heptan-2-yl]-1H-pyrazole-4-carboxamide], 0.8 nM.
